Results: patent publication US20140187595A1 (INSERM (Institut National de la Sante et de la Recherche …, priority 2010, published 2014)

Key:
[1] = tested on: INSR splicing (±exon 11) in DM1 MPCs; assay: INSR splicing (±exon 11, INSR-A/INSR-B ratio) by quantitative PCR in DM1 MPCs; type: cell-based, human
[2] = tested on: cTNT splicing (±exon 5), pRG6 minigene; assay: cTNT splicing (±exon 5) by RT-PCR in MPCs transfected with pRG6 minigene; type: cell-based, human; details: 25 mM, DM1 MPCs
Text: FIG. 1E cTNT splicing (±exon 5) in WT and DM1 MPCs cotransfected with the indicated expression vectors and the pSG (d) or pRG6 (e) minigenes respectively (means ±s.d., n=3).
TNNT2 (cTNT) was chosen because, opposite to INSR, abnormal splicing in DM1 leads to the inclusion of an exon (exon 5)^4. As TNNT2 is not expressed in MPCs, cells were transfected with the RG6 minigene^13 based upon the chicken orthologue.

WT MPCs = assay: INSR and cTNT splicing in WT cells; type: cell-based, human
DM1 myoblasts = assay: Splicing in immortalized myoblasts from DM1 patients; type: cell-based, human
Text: FIGS. 4A and 4B. Effects of AMPK activators on INSR splicing defect in immortalized myoblasts or freshly isolated peripheral blood lymphocytes (PBLs) from DM1 patients.

[3] = Toxicity in mouse at end of metformin treatment; type: in vivo, C57BL/6NCr1 mouse; details: 200 and 600 mg/Kg/day by gavage
Text: Enhancement of Ank2 exon 21 and Capzb exon 8 inclusion, INSR exon 11 and Nfix exon […] exclusion or Alp exons 5a and 5b alternative splicing associated to a rescuing effect of DM1 missplicings in mouse skeletal muscle were observed.

[4] = tested on: pre-mRNA splicing (Ank2, Capzb, INSR, Nfix, Alp); details: higher dose (600 mg/Kg/day), mouse heart
DM1 cells = assay: Toxicity on repeated daily treatment of DM1 cells; details: 10 mM repeated daily for up to 10 days
[5] = tested on: splicing defects associated with myotonic dystrophy; details: Warf et al. 2009; cited from earlier work

Structure (SMILES) | corrective effect on INSR splicing after repeated treatment ([1]; 10 mM daily for up to 10 days) | INSR splicing (±exon 11) rescue ([1]; 24 h-treatment, increasing concentrations) | exogenous cTNT splicing (±exon 5) [2] | exogenous cTNT splicing (±exon 5) ([2]; listed as Metformin) | "MBNL1-related" splicing of the two genes (INSR, cTNT) (WT MPCs) | INSR transcript exon 11 (DM1 myoblasts) | SERCA1 transcript exon 22 (DM1 myoblasts) | ZASP transcript exon 10 (DM1 myoblasts) | endogenous human cTNT transcript exon 5 (DM1 myoblasts) | toxicity at the end of the treatment period [3] | INSR exon 11 exclusion in the heart [4] | toxicity (DM1 cells) | splicing defects associated with myotonic dystrophy [5]
CN(C)C(=N)N=C(N)N [metformin] | maintained corrective effect | partially rescues | decreased inclusion of exon 5 | restores | efficient in facilitating | exon 11 inclusion | exon 22 inclusion | exon 10 skipping | exon 5 skipping | No sign of toxicity | enhancement of INSR exon 11 exclusion was also observed | no observed toxicity | –
N=C(N)c1ccc(OCCCCCOc2ccc(C(=N)N)cc2)cc1 [Pentamidine, pentamidine] | – | – | – | – | – | – | – | – | – | – | – | – | reverses the splicing defects
